What follows are molecules tested against human NAMPT (Homo sapiens (Human), UniProt P43490) (assay: NMN fluorescence biochemical assay (human recombinant NAMPT enzyme assay)).
How it was run: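 NMN formed was detected by fluorescence (Ex/Em 355/460 nm) after acetophenone, KOH and formic acid derivatization. The cell-free reaction ran 60 min at ambient temperature with 6 nM human NAMPT, 150 μM nicotinamide, 20 μM PRPP, 2.5 mM ATP, pH 7.2 HEPES, and compound dose responses.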

human NAMPT, sequence (P43490 whole entry): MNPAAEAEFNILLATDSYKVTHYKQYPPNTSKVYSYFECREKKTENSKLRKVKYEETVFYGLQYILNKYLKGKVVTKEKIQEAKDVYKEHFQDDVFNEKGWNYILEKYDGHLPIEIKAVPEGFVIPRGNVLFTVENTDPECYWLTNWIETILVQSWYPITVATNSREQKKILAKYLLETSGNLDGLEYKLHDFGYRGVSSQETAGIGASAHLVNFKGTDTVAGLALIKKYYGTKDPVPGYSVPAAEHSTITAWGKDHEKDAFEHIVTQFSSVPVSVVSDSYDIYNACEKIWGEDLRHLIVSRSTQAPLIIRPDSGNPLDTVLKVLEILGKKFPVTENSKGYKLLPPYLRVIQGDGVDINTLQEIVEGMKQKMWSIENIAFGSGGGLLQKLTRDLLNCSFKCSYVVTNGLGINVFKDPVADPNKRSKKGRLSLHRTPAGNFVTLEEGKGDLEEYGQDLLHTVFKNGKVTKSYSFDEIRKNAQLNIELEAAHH

| SMILES | AC1.4 Human | EC50 |
| --- | --- | --- |
| COCCN1CCC(Cc2ccc(NC(=O)OCc3cnco3)cc2)CC1 [Compound 293, oxazol-5-ylmethyl (4-((1-(2-methoxyethyl)piperidin-4-yl)methyl)phenyl)carbamate] | 4.16 µM | 18.4 µM |
| Cc1cnc(C(=O)NCc2ccc(NC(=O)OCc3ccc(Cl)cc3)cc2)o1 [Compound 294, (4-chlorophenyl)methyl N-(4-{[(5-methyl-1,3-oxazol-2-yl)formamido]methyl}phenyl)carbamate] | 4.19 µM | 46.5 µM |
| Cn1ccc(CC(=O)NCc2ccc(NC(=O)OCc3ccc(Cl)cc3)cc2)n1 [Compound 295, (4-chlorophenyl)methyl N-(4-{[2-(1-methylpyrazol-3-yl)acetamido]methyl}phenyl)carbamate] | 4.57 µM | 28 µM |
| CC(O)(c1ccncc1)c1ccc(NC(=O)OCc2cnco2)cc1 (centres unmarked) [Compound 296, oxazol-5-ylmethyl (4-(1-hydroxy-1-(pyridin-4-yl)ethyl)phenyl)carbamate] | 4.62 µM | 14.3 µM |
| O=C(Cc1ncco1)NCc1ccc(NC(=O)OCc2ccc(Cl)cc2)cc1 [Compound 297, (4-chlorophenyl)methyl N-(4-{[2-(1,3-oxazol-2-yl)acetamido]methyl}phenyl)carbamate] | 4.65 µM | 19.8 µM |
| CN(Cc1ccc(NC(=O)OCc2ccc(Cl)cc2)cc1)C(=O)c1ccc(C(F)F)nc1 [Compound 298, (4-chlorophenyl)methyl N-[4-({1-[6-(difluoromethyl)pyridin-3-yl]-N-methylformamido}methyl)phenyl]carbamate] | 4.66 µM | 20.4 µM |
| O=C(Nc1ccc(Cc2ccncc2)cc1)OCc1cnsc1 [Compound 299, isothiazol-4-ylmethyl (4-(pyridin-4-ylmethyl)phenyl)carbamate] | 4.67 µM | 11.6 µM |
| O=C(Cc1ccc(NC(=O)OCc2ccc(Cl)cc2)cc1)NCc1cnccn1 [Compound 300, (4-chlorophenyl)methyl N-(4-{[(pyrazin-2-ylmethyl)carbamoyl]methyl}phenyl)carbamate] | 4.81 µM | 26.4 µM |
| CC(C)n1nccc1C(=O)NCc1ccc(NC(=O)OCc2ccc(Cl)cc2)cc1 [Compound 301, (4-chlorophenyl)methyl N-(4-{[(2-isopropylpyrazol-3-yl)formamido]methyl}phenyl)carbamate] | 4.81 µM | 26.8 µM |
| CC(C)Cn1nccc1C(=O)NCc1ccc(NC(=O)OCc2ccc(Cl)cc2)cc1 [Compound 302, (4-chlorophenyl)methyl N-[4-({[2-(2-methylpropyl)pyrazol-3-yl]formamido}methyl)phenyl]carbamate] | 4.86 µM | 17.2 µM |
| O=C(Nc1ccc(Cc2cnccn2)cc1)OCc1ccc(Cl)cc1 [Compound 303, 4-chlorobenzyl (4-(pyrazin-2-ylmethyl)phenyl)carbamate] | 4.87 µM | 19.4 µM |
| CC(C)N1CC(=O)NC[C@@H]1c1ccc(NC(=O)OCc2ccc(Cl)cc2)cc1 [Compound 304, 4-chlorobenzyl (S)-(4-(1-isopropyl-5-oxopiperazin-2-yl)phenyl)carbamate] | 4.93 µM | 23.5 µM |
| O=C(Nc1ccc(CNC(=O)c2ccc(F)cn2)cc1)OCc1ccc(Cl)cc1 [Compound 305, (4-chlorophenyl)methyl N-(4-{[(5-fluoropyridin-2-yl)formamido]methyl}phenyl)carbamate] | 4.95 µM | 22.9 µM |
| N#Cc1ccc(COC(=O)Nc2ccc(Cc3ccncc3)cc2)cc1 [Compound 306, 4-cyanobenzyl (4-(pyridin-4-ylmethyl)phenyl)carbamate] | 4.97 µM | 13.9 µM |
| O=C(Nc1ccc(Cc2ccccc2)cc1)OCc1ccc(Cl)cc1 [Compound 307] | 5.02 µM | 5.55 µM |
| O=C(Cc1ccc(NC(=O)OCc2ccc(Cl)cc2)cc1)NC1CCOCC1 [Compound 308, (4-chlorophenyl)methyl N-(4-{[(oxan-4-yl)carbamoyl]methyl}phenyl)carbamate] | 5.08 µM | 8.69 µM |
| O=C(Nc1ccc(CNC(=O)N2CCC(F)(F)CC2)cc1)OCc1ccc(Cl)cc1 [Compound 309, (4-chlorophenyl)methyl N-{4-[(4,4-difluoropiperidine-1-carbonylamino)methyl]phenyl}carbamate] | 5.19 µM | 14.9 µM |
| O=C(Nc1ccc(CNC(=O)C2COC2)cc1)OCc1ccc(Cl)cc1 [Compound 310, (4-chlorophenyl)methyl N-{4-[(oxetan-3-ylformamido)methyl]phenyl}carbamate] | 5.29 µM | 32.8 µM |
| O=C(Cc1cnco1)NCc1ccc(NC(=O)OCc2ccc(Cl)cc2)cc1 [Compound 311, (4-chlorophenyl)methyl N-(4-{[2-(1,3-oxazol-5-yl)acetamido]methyl}phenyl)carbamate] | 5.40 µM | 26.8 µM |
| O=C1CN(C(=O)C(F)(F)c2ccc(NC(=O)OCc3ccc(Cl)cc3)cc2)CCN1 [Compound 312, (4-chlorophenyl)methyl N-{4-[1,1-difluoro-2-oxo-2-(3-oxopiperazin-1-yl)ethyl]phenyl}carbamate] | 5.55 µM | 39.1 µM |
| O=C(Nc1ccc(C2CCN(C3COC3)CC2)cc1)OCc1cnco1 [Compound 313, 1,3-oxazol-5-ylmethyl N-{4-[1-(oxetan-3-yl)piperidin-4-yl]phenyl}carbamate] | 5.55 µM | 25.6 µM |
| Cn1nccc1Cc1ccc(NC(=O)OCc2ccc(Cl)cc2)cc1 [Compound 314, 4-chlorobenzyl (4-((1-methyl-1H-pyrazol-5-yl)methyl)phenyl)carbamate] | 5.75 µM | 38.3 µM |
| Cn1cc(CC(=O)NCc2ccc(NC(=O)OCc3ccc(Cl)cc3)cc2)cn1 [Compound 315, (4-chlorophenyl)methyl N-(4-{[2-(1-methylpyrazol-4-yl)acetamido]methyl}phenyl)carbamate] | 5.91 µM | 7.32 µM |
| O=C(Nc1ccc(CC2CCN(C3COC3)CC2)cc1)OCc1ccncc1 [Compound 316] | 6.04 µM | 28.6 µM |
| O=C(Nc1ccc(CC(=O)N2CC[C@@H](O)C2)cc1)OCc1ccc(Cl)cc1 [Compound 317, (4-chlorophenyl)methyl N-(4-{2-[(3R)-3-hydroxypyrrolidin-1-yl]-2-oxoethyl}phenyl)carbamate] | 6.19 µM | 32.4 µM |
| COc1ccc(COC(=O)Nc2ccc(CN3CCN(C4COC4)CC3)cc2)cc1 [Compound 318, (4-methoxyphenyl)methyl N-(4-{[4-(oxetan-3-yl)piperazin-1-yl]methyl}phenyl)carbamate] | 6.26 µM | 56.8 µM |
| O=C(Nc1ccc(CC(=O)N2CC[C@H](O)C2)cc1)OCc1ccc(Cl)cc1 [Compound 319, (4-chlorophenyl)methyl N-(4-{2-[(3S)-3-hydroxypyrrolidin-1-yl]-2-oxoethyl}phenyl)carbamate] | 6.50 µM | 40.8 µM |
| O=C(Nc1ccc(CC2CCNCC2)cc1)OCc1cnco1 [Compound 320, oxazol-5-ylmethyl (4-(piperidin-4-ylmethyl)phenyl)carbamate] | 6.60 µM | 34.2 µM |

From US20240279215A1 (Cytokinetics, Incorporated, priority 2022, published 2024)
